Molecules are shown by their SMILES. In brackets after ≈: the same amount, converted by molar mass. Several values for one entry are separate records, joined by “and”; a condition that tells them apart may be missing. Equal values may be shown once. Read-outs that look alike come from different tables or passages of the source.

Data set [1] has as its system Staphylococcus aureus ATCC 6538P FDA 209P. Description: Antimicrobial activity (Sa). In kind it is cell-based. As to the method:
(§1) The antimicrobial activity of the compounds was tested on Gram-positive Staphylococcus aureus ATCC 6538P FDA 209P (Sa), Bacillus cereus ATCC 10702 NCTC 8035 (Bc), Enterococcus faecalis ATCC 29212 (Ef), and Gram-negative bacteria Escherichia coli ATCC 25922 (Ec), Pseudomonas aeruginosa ATCC 9027 (Pa), including methicillin-resistant strains of S. aureus MRSA-1 (resistant to fluoroquinolones and beta-lactams) and MRSA-2 (resistant to beta-lactams). Antifungal activity was studied against Candida albicans ATCC 10231 (Ca), Trichophyton mentagrophytes var. gypseum 1773 (Tm), and Aspergillus niger BKMF-1119 (An). A more detailed description of the experiment is published in [21].

Data set [2] relates to Aspergillus niger BKMF-1119. Description: Antifungal activity (An). In kind it is cell-based. As to the method: as §1
Data set [3] deals with Escherichia coli ATCC 25922. Description: Antimicrobial activity (Ec). In kind it is cell-based. As to the method: as §1
Data set [4] relates to Enterococcus faecalis ATCC 29212. The data set is described as follows: Antimicrobial activity (Ef). In kind it is cell-based. As to the method:
as §1

In data set [5] the target is T1, human acetylcholinesterase (hAChE) (Homo sapiens, UniProt P22303).
T1 construct: purchased Sigma-Aldrich
Description: biochemical. As to the method: (§2) Stock solutions (0.01 M) of the compounds were dissolved in H2O. The inhibitory activity of compounds against hAChE and hBChE was measured using Ellman’s method. Enzyme-catalyzed hydrolysis was carried out in 0.1 M PBS (pH = 8.0) containing 0.1 nM hAChE or hBChE, 0.1 mM 5,5′-dithiobis-(2-nitrobenzoic acid) and 1mM acetylthiocholine or butyrylthiocholine as substrates. The tested compounds were incubated with the enzyme for 5 min prior to the addition of the substrate. Analyses were performed at 298 K using a Shimadzu UV-1800 spectrophotometer (Shimadzu Co., Kyoto, Japan) at 412 nm. The substrate hydrolysis rate was measured within 2 min. A sample without inhibitor was used as a control (100% cholinesterase activity). A sample without substrate was used as a blank. The experiments were conducted in triplicate. The percentage of enzyme inhibition was determined using OriginPro 8.5 software (OriginLab Corporation, Northampton, MA, USA) by plotting a percentage of the inhibition versus compound concentration. IC50 values (inhibitor concentration required to inhibit enzyme activity by 50%) were determined by the Hill equation: E/Emax=[I]^n/IC50n+[I]^n, where E is enzyme activity in the presence of the compound, and [I] is the compound concentration.

For data set [6], the system named is Pseudomonas aeruginosa ATCC 9027. The data set is described as follows: Antimicrobial activity (Pa). In kind it is cell-based. How it is done:
as §1

Data set [7] has as its system Trichophyton mentagrophytes var. gypseum 1773. Description: Antifungal activity (Tm). In kind it is cell-based. How it is done:
as §1

A short description of data set [8]: Conductometry. In kind it is physicochemical. The settings on record: 298 K. How it is done:
The electrical conductivity of the micellar solutions was determined on an InoLab Cond 7110 conductometer (WTW, Weilheim, Germany). For the experiment, surfactant solutions with a volume of 10 mL were prepared. The electrical conductivity of all solutions was recorded at 298 K, and the electrode was washed with purified water after each measurement. The cmc was determined from the breakpoint of the dependence of electrical conductivity on the concentration of surfactants.

For data set [9], the system named is Candida albicans ATCC 10231. The data set is described as follows: Antifungal activity (Ca). In kind it is cell-based. How it is done: as §1
The nature of data set [10]: Pyrene fluorimetry. In kind it is physicochemical. The settings on record: 298 K. As to the method:
To determine cmc by fluorimetry, a hydrophobic probe pyrene was added to a series of surfactant solutions at a concentration of 1 μM. The solutions were kept for 30–40 min for complete solubilization of the probe. The fluorescent emission spectra of pyrene were recorded on an F-7100 fluorimeter (Hitachi, Tokyo, Japan) using 10 × 4 mm quartz cuvette (Hellma Analytics, Müllheim, Germany) with the following settings: λex = 335 nm, λem = 350–600 nm, and scanning speed = 1200 nm/min. The cmc was calculated from the dependence of the pyrene polarity index (the ratio of the intensities of the first (373 nm) and third (383 nm) peaks) on the surfactant concentration.

The nature of data set [11]: Orange OT solubilization, spectrophotometry (Schott method for Nagg). In kind it is physicochemical. As to the method:
(§3) The cmc and the solubilizing capacity (S) of surfactants were determined using the spectral azo dye OOT and the non-steroidal anti-inflammatory drug IND. To obtain a saturated solution, an excess of OOT and IND was added to 2 mL of a surfactant solution, stirred, and kept for 48 and 24 h, respectively. After that, the solutions were filtered using Millex® Syringe Filters (Millipore, Burlington, MA, USA) with a pore size of 450 nm, and the optical density was measured. The absorption spectra were recorded on a Specord 250 Plus spectrophotometer (Analytik Jena AG, Jena, Germany). Quartz cells with a thickness of 1 and 0.5 cm (Hellma Analytics, Müllheim, Germany) were used for measurements.
(§4) The solubilizing capacity (S) was determined using the following formula:S = b/ε, where b is D/l = f (Csurf) dependency slope (above cmc), ε is the extinction coefficient (17,400 L/mol∙cm for OOT, and the extinction coefficients of IND are determined in GS solutions and presented in Figure S10).
The OOT solubilization method (Schott method) was used to calculate the micelle Nagg. The Nagg values were calculated for each point on the curve of dependence of the OOT-reduced optical density on the surfactant concentration above the cmc according to the presented formula:[…], where ε is the extinction coefficient of OOT, Csurf is the surfactant concentration above cmc, and D is the optical density.

Data set [12] relates to methicillin-resistant S. aureus MRSA-1 (resistant to fluoroquinolones and beta-lactams). Description: Antimicrobial activity (MRSA-1). In kind it is cell-based. How it is done: as §1
Data set [13] concerns Bacillus cereus ATCC 10702 NCTC 8035. Description: Antimicrobial activity (Bc). In kind it is cell-based. As to the method: as §1
Data set [14] can be described thus: Indomethacin solubilization, spectrophotometry. In kind it is physicochemical. The note with it: 298 K. As to the method: as §3, §4
For data set [15], the system named is methicillin-resistant S. aureus MRSA-2 (resistant to beta-lactams). Description: Antimicrobial activity (MRSA-2). In kind it is cell-based. As to the method: as §1
Data set [16] in a line: Tensiometry (Du Nouy ring), surface tension isotherms. In kind it is physicochemical. As to the method: The surface tension isotherms of the micellar solutions were determined using the Du Nouy platinum ring detachment method on a K6 tensiometer (KRŰSS GmbH, Hamburg, Germany). For the experiment, surfactant solutions with a volume of 10 mL were prepared. The measurements were carried out strictly at 298 K in glass beakers, the diameter of which exceeded the diameter of the platinum ring. Surface tension measurements were carried out until stable values were obtained. After each measurement, the ring was degreased in ethanol and thoroughly dried. The cmc of the micellar solutions was determined from the breakpoint on the isotherm of surface tension versus surfactant concentration. The thermodynamic parameters of adsorption and micellization were calculated for all systems based on the obtained tensiometric curves.

Data set [17] concerns the target T2, human butyrylcholinesterase (hBChE) (Homo sapiens, UniProt P06276).
T2 construct: purchased Sigma-Aldrich
Description: In vitro cholinesterase inhibition, Ellman's method (hBChE). In kind it is biochemical. As to the method:
as §2

For data set [18] the following is noted: alkyltrimethylammonium bromides; cited from earlier work.
The test system of data set [19] is methicillin-resistant S. aureus MRSA-1 (resistant to fluoroquinolones and beta-lactams). The settings on record: cited from earlier work.

T1 sequence (P22303 32-614): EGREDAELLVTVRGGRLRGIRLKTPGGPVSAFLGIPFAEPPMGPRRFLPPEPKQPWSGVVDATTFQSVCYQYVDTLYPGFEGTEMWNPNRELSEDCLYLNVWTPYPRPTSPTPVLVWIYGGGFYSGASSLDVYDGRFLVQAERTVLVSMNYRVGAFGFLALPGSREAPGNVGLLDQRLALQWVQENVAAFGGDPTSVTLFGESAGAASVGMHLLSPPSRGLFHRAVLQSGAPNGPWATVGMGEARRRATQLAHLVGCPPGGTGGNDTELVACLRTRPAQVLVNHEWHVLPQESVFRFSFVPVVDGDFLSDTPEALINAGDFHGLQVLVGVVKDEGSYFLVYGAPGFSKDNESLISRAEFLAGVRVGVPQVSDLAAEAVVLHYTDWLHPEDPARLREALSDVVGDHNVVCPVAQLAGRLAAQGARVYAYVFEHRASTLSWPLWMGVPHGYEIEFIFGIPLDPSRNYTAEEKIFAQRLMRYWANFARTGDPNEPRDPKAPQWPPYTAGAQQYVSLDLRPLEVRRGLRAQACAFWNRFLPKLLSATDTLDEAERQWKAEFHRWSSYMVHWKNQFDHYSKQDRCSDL
T2 sequence (P06276 29-602): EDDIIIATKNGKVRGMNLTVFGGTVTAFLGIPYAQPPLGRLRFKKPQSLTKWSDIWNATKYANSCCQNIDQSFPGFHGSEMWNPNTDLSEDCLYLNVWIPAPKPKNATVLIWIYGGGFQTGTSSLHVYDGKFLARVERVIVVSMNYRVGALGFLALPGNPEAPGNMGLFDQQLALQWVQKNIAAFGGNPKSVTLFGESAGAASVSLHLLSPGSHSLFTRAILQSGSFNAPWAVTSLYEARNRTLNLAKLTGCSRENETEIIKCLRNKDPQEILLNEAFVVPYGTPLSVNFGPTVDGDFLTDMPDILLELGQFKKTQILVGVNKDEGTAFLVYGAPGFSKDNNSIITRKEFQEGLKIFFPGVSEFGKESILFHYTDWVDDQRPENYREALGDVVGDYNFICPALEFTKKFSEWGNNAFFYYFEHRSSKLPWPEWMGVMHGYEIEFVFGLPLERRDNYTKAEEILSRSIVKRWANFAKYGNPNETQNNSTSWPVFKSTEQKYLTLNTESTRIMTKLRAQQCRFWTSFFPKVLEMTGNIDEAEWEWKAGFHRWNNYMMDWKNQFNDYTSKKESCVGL

As to `CCCCCCCCCC[N+](C)(CCCCCCCCCCCC[N+](C)(CCCCCCCCCC)CCOC(=O)NCC)CCOC(=O)NCC` (stereo not shown) [10-12-10(Et)], in [1], the “MBC, Sa” value worked out at 0.5 ± 0.04 µg/mL and the “MIC, Sa” value was found to be 0.5 ± 0.03 µg/mL. Besides, in data set [2], the “MFC, An” value is greater than 250 µg/mL and the “MIC, An” value came out at 250 ± 19 µg/mL. For the same compound, in [3], the “MBC, Ec” value was determined as 0.5 ± 0.03 µg/mL and the “MIC, Ec” value was found to be 0.5 ± 0.03 µg/mL. In [4], the “MBC, Ef” value amounted to 0.5 ± 0.04 µg/mL and the “MIC, Ef” value was found to be 0.5 ± 0.03 µg/mL. In data set [5], the IC50 worked out at 0.0431 ± 0.0009 µM. In addition, the “SIhBChE/hAChE (selectivity index)” value in [5] (IC50 hBChE / IC50 hAChE) was determined as 0.44. In [6], the “MBC, Pa” value is 3.9 ± 0.3 µg/mL and the “MIC, Pa” value stood at 1.9 ± 0.1 µg/mL. Also, in [7], the “MFC, Tm” value was found to be 15.6 ± 1.3 µg/mL and the “MIC, Tm” value was determined as 0.9 ± 0.07 µg/mL. In addition, in data set [8], the cmccond was 1.5 mM and 1.5 ± 0.04 mM; the “βcond (degree of counterion binding)” value is 0.41. In addition, in data set [9], the “MFC, Ca” value came to 15.6 ± 1.2 µg/mL and the “MIC, Ca” value was 0.9 ± 0.07 µg/mL. The “cmc, Fluorimetry” value in [10] is 0.9 mM and 0.9 ± 0.03 mM. For the same compound, in data set [11], the “S (solubilizing capacity), OOT” value is given as 0.021 molOOT/molGS. Besides, in data set [11] (298 K), the “S (solubilizing capacity), OOT” value turned out to be 0.021 molprobe/molGS. The “cmc, Spectrophotometry” value in [11] (OOT, 298 K) was found to be 1.5 ± 0.1 mM. Moreover, the “Nagg (aggregation number)” value in [11] (Schott approach, OOT solubilization, 298 K) was 50. For the same compound, in [12], the “MBC, MRSA-1” value is 1.9 ± 0.1 µg/mL; the “MIC, MRSA-1” value is 0.5 µg/mL and 0.5 ± 0.03 µg/mL. Moreover, in data set [13], the “MBC, Bc” value was 0.5 ± 0.03 µg/mL and the “MIC, Bc” value came to 0.5 ± 0.04 µg/mL. For the same compound, the “S (solubilizing capacity), IND” value in data set [14] is 0.13 molprobe/molGS. Moreover, in data set [15], the “MBC, MRSA-2” value was 3.9 ± 0.3 µg/mL; the “MIC, MRSA-2” value is 0.5 µg/mL and 0.5 ± 0.03 µg/mL. In [16] (298 K), the “Amin (surface area per surfactant molecule)” value amounted to 2.34 nm^2, the “Гmax∙10^6 (maximum surface excess)” value is recorded as 0.71 mol∙m^−2 and the “∆Gmic (free energy of micellization)” value is -6.09 kcal/mol. Moreover, the “calculated adsorption layer thickness” value in data set [16] (air/water interface) was 0.7 nm. In [16] (tensiometry, 298 K), the cmctens is 1 mM and 1 ± 0.03 mM. The same compound came in with an IC50 in [17] of 0.019 ± 0.005 µM.

Take `CCCCCCCCCCCC[N+](C)(C)C.[Br-]` [C12TAB]: the Nagg in data set [18] is 55.

With `CCCCCCCCCCCCCC[N+](C)(C)C.[Br-]` [C14TAB], the Nagg in data set [18] is 70.

Regarding `CCCCCCCCCCCCCCCC[N+](C)(C)C.[Br-]` [C16TAB], the Nagg in data set [18] was 89.

As to `O=C(O)c1cn(C2CC2)c2cc(N3CCNCC3)c(F)cc2c1=O` [Ciprofloxacin], the “effectiveness toward MRSA-1 compared with 10-12-10(Et)” value in data set [19] was “two orders of magnitude less effective”.

Turning to `CC(=O)N1CCN(c2ccc(OCC3COC(Cn4ccnc4)(c4ccc(Cl)cc4Cl)O3)cc2)CC1` (stereo not shown) [Ketoconazole, reference compound], the MFC in data set [2] (Aspergillus niger, BKMF1119, read-out: MFC, An) stood at 125 ± 10 µg/mL (≈ 235 µM); in data set [7] (Trichophyton mentagrophytes, read-out: MFC, Tm) it was 3.9 ± 0.3 µg/mL (≈ 7.34 µM); in data set [9] (Candida albicans, ATCC10231, read-out: MFC, Ca) it was 3.9 ± 0.3 µg/mL (≈ 7.34 µM). Moreover, the MIC in [2] (Aspergillus niger, BKMF1119, read-out: MIC, An) came out at 15.6 ± 1.3 µg/mL (≈ 29.4 µM); in [7] (Trichophyton mentagrophytes, read-out: MIC, Tm), 3.9 ± 0.3 µg/mL (≈ 7.34 µM); in data set [9] (Candida albicans, ATCC10231, read-out: MIC, Ca), 3.9 ± 0.3 µg/mL (≈ 7.34 µM).

The values above are taken from PMC10419252, “Synthesis, Properties, and Biomedical Application of Dicationic Gemini Surfactants with Dodecane Spacer and Carbamate Fragments” (International Journal of Molecular Sciences, 2023).
